This note sets out measurements from US7419969B2 (Bristol-Myers Squibb Company, priority 2004, dated 2008).

For the first test, the target named is T1, HIV-integrase (Human immunodeficiency virus type 1 group M subtype B, UniProt P04585).
T1 construct: Recombinant integrase (0.26 ng) was incubated with the beads
In words: in-vitro activity against HIV-integrase (HIV Integrase Inhibition, SPA bead assay). Particulars: Table 1; recombinant integrase, activity class. The test is classed as biochemical. A digest of the protocol: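 Recombinant integrase (0.26 ng) pre-bound for 90 min at 37 °C to biotinylated substrate DNA on streptavidin SPA beads, then washed. Inhibitors added with 33P-labelled target DNA; reaction stopped with 10 mM EDTA. Scintillation CPM taken as integration signal.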
For `O=C(NCc1ccc(F)cc1)c1nc2n(c(=O)c1O)CCCC21CCC1` [Example 66, N-[(4-fluorophenyl)methyl]-7′,8′-dihydro-3′-hydroxy-4′-oxo-spiro[cyclobutane-1,9′(6′H)-[4H]pyrido[1,2-α]pyrimidine]-2′-carboxamide], the IC50 lay within 1 to 10 nM.

`O=C(NCc1cccc(F)c1)c1nc2n(c(=O)c1O)CCCC21CCC1` [Example 67]: the 50% inhibitory concentration (IC50) lay within 1 to 10 nM.

As for `O=C(NCc1ccccc1F)c1nc2n(c(=O)c1O)CCCC21CCC1` [Example 68, N-[(2-fluorophenyl)methyl]-7′,8′-dihydro-3′-hydroxy-4′-oxo-spiro[cyclobutane-1,9′(6′H)-[4H]pyrido[1,2-α]pyrimidine]-2′-carboxamide], the IC50 was in the range of 10 to 100 nM.

As for `Cc1ccc(CNC(=O)c2nc3n(c(=O)c2O)CCCC32CCC2)cc1C` [Example 69, N-[(3,4-dimethylphenyl)methyl]-7′,8′-dihydro-3′-hydroxy-4′-oxo-spiro[cyclobutane-1,9′(6′H)-[4H]pyrido[1,2-α]pyrimidine]-2′-carboxamide], the half-inhibitory concentration (IC50) lay within 1 to 10 nM.

Consider `O=C(NCc1ccc(Cl)c(Cl)c1)c1nc2n(c(=O)c1O)CCCC21CCC1` [Example 70, N-[(3,4-dichlorophenyl)methyl]-7′,8′-dihydro-3′-hydroxy-4′-oxo-spiro[cyclobutane-1,9′(6′H)-[4H]pyrido[1,2-α]pyrimidine]-2′-carboxamide], for which the IC50 fell in the range of 1 to 10 nM.

For `COc1ccc(CNC(=O)c2nc3n(c(=O)c2O)CCCC32CCC2)c(OC)c1` [Example 71, N-[(2,4-dimethoxyphenyl)methyl]-7′,8′-dihydro-3′-hydroxy-4′-oxo-spiro[cyclobutane-1,9′(6′H)-[4H]pyrido[1,2-α]pyrimidine]-2′-carboxamide], the half-maximal inhibitory concentration (IC50) lay within 10 to 100 nM.

For the molecule `Cc1cc(CNC(=O)c2nc3n(c(=O)c2O)CCCC32CCC2)ccc1F` [Example 72, N-[(4-fluoro-3-methylphenyl)methyl]-7′,8′-dihydro-3′-hydroxy-4′-oxo-spiro[cyclobutane-1,9′(6′H)-[4H]pyrido[1,2-α]pyrimidine]-2′-carboxamide], the IC50 was in the range of 1 to 10 nM.

`Cc1ccc(CNC(=O)c2nc3n(c(=O)c2O)CCCC32CCC2)cc1F` [Example 73, N-[(3-fluoro-4-methylphenyl)methyl]-7′,8′-dihydro-3′-hydroxy-4′-oxo-spiro[cyclobutane-1,9′(6′H)-[4H]pyrido[1,2-α]pyrimidine]-2′-carboxamide]: the IC50 lay in the range of 1 to 10 nM.

Regarding `CC(NC(=O)c1nc2n(c(=O)c1O)CCCC21CCC1)c1ccc(F)cc1` (stereo not drawn) [Example 74, N-[1-(4-fluorophenyl)ethyl]-7′,8′-dihydro-3′-hydroxy-4′-oxo-spiro[cyclobutane-1,9′(6′H)-[4H]pyrido[1,2-α]pyrimidine]-2′-carboxamide], the half-maximal inhibitory concentration (IC50) is 10 to 100 nM.

Regarding `O=C(NCc1cc(F)ccc1F)c1nc2n(c(=O)c1O)CCCC21CCC1` [Example 75, N-[(2,5-difluorophenyl)methyl]-7′,8′-dihydro-3′-hydroxy-4′-oxo-spiro[cyclobutane-1,9′(6′H)-[4H]pyrido[1,2-α]pyrimidine]-2′-carboxamide], the IC50 lay in the range of 10 to 100 nM.

Take `O=C(NCc1cc(Cl)ccc1Cl)c1nc2n(c(=O)c1O)CCCC21CCC1` [Example 76, N-[(2,5-dichlorophenyl)methyl]-7′,8′-dihydro-3′-hydroxy-4′-oxo-spiro[cyclobutane-1,9′(6′H)-[4H]pyrido[1,2-α]pyrimidine]-2′-carboxamide]: the 50% inhibitory concentration (IC50) is 1 to 10 nM.

Regarding `O=C(NCc1cc(F)ccc1-n1cncn1)c1nc2n(c(=O)c1O)CCCC21CCC1` [Example 77, N-[[5-fluoro-2-(1H-1,2,4-triazol-1-yl)phenyl]methyl]-7′,8′-dihydro-3′-hydroxy-4′-oxo-spiro[cyclobutane-1,9′(6′H)-[4H]pyrido[1,2-α]pyrimidine]-2′-carboxamide], the concentration for half-maximal inhibition (IC50) was 1 to 10 nM.

As for `O=C(NCc1ccc(F)cc1-n1cncn1)c1nc2n(c(=O)c1O)CCCC21CCC1` [Example 78, N-[[4-fluoro-2-(1H-1,2,4-triazol-1-yl)phenyl]methyl]-7′,8′-dihydro-3′-hydroxy-4′-oxo-spiro[cyclobutane-1,9′(6^1′H)-[4H]pyrido[1,2-α]pyrimidine]-2′-carboxamide], the half-maximal inhibitory concentration (IC50) lay within 1 to 10 nM.

For `O=C(NCc1ccc(F)cc1N1CCCCS1(=O)=O)c1nc2n(c(=O)c1O)CCCC21CCC1` [Example 79, N-[[4-fluoro-2-(tetrahydro-1,1-dioxido-2H-1,2-thiazin-2-yl)phenyl]methyl]-7′,8′-dihydro-3′-hydroxy-4′-oxo-spiro[cyclobutane-1,9′(6′H)-[4H]pyrido[1,2-α]pyrimidine]-2′-carboxamide], the IC50 lay in the range of 1 to 10 nM.

With `O=C(NCc1ccccc1-n1cncn1)c1nc2n(c(=O)c1O)CCCC21CCC1` [Example 80, N-[[2-(1H-1,2,4-triazol-1-yl)phenyl]methyl]-7′,8′-dihydro-3′-hydroxy-4′-oxo-spiro[cyclobutane-1,9′(6′H)-[4H]pyrido[1,2-α]pyrimidine]-2′-carboxamide], the 50% inhibitory concentration (IC50) was 1 to 10 nM.

For `CS(=O)(=O)c1cc(F)ccc1CNC(=O)c1nc2n(c(=O)c1O)CCCC21CCC1` [Example 81, N-[[4-fluoro-2-(methylsulfonyl)phenyl]methyl]-7′,8′-dihydro-3′-hydroxy-4′-oxo-spiro[cyclobutane-1,9′(6′H)-[4H]pyrido[1,2-α]pyrimidine]-2′-carboxamide], the half-inhibitory concentration (IC50) is 1 to 10 nM.

In the case of `CN(C)S(=O)(=O)c1cc(F)ccc1CNC(=O)c1nc2n(c(=O)c1O)CCCC21CCC1` [Example 82, N-[[2-[(dimethylamino)sulfonyl]-4-fluorophenyl]methyl]-7′,8′-dihydro-3′-hydroxy-4′-oxo-spiro[cyclobutane-1,9′(6′H)-[4H]pyrido[1,2-α]pyrimidine]-2′-carboxamide], the half-maximal inhibitory concentration (IC50) lay in the range of 1 to 10 nM.

Regarding `O=C(NCc1ccccc1N1CCCCS1(=O)=O)c1nc2n(c(=O)c1O)CCCC21CCC1` [Example 83, 7′,8′-dihydro-3′-hydroxy-4′-oxo-N-[[2-(tetrahydro-1,1-dioxido-2H-1,2-thiazin-2-yl)phenyl]methyl]-spiro[cyclobutane-1,9′(6′H)-[4H]pyrido[1,2-α]pyrimidine]-2′-carboxamide], the IC50 was 10 to 100 nM.

On to `O=C(NCc1ccc(F)cc1)c1nc2n(c(=O)c1O)CCC21CCCC1` [Example 84, N-[(4-fluorophenyl)methyl]-6′,7′-dihydro-3′-hydroxy-4′-oxo-spiro[cyclopentane-1,8′(4′H)-pyrrole[1,2-α]pyrimidine]-2′-carboxamide], for which the IC50 was in the range of 1 to 10 nM.

`CS(=O)(=O)c1cc(F)ccc1CNC(=O)c1nc2n(c(=O)c1O)CCC21CCCC1` [Example 85, N-[[4-fluoro-2-(methylsulfonyl)phenyl]methyl]-6′,7′-dihydro-3′-hydroxy-4′-oxo-spiro[cyclopentane-1,8′(4′H)-pyrrolo[1,2-α]pyrimidine]-2′-carboxamide]: the IC50 is 1 to 10 nM.

On to `CN(C)S(=O)(=O)c1cc(F)ccc1CNC(=O)c1nc2n(c(=O)c1O)CCC21CCCC1` [Example 86, N-[[2-[(dimethylamino)sulfonyl]-4-fluorophenyl]methyl]-6′,7′-dihydro-3′-hydroxy-4′-oxo-spiro[cyclopentane-1,8′(4′H)-pyrrolo[1,2-α]pyrimidine]-2′-carboxamide], for which the half-inhibitory concentration (IC50) was 10 to 100 nM.

In the case of `O=C(NCc1ccc(F)cc1-n1cncn1)c1nc2n(c(=O)c1O)CCC21CCCC1` [Example 87, N-[[4-fluoro-2-(1H-1,2,4-triazol-1-yl)phenyl]methyl]-6′,7′-dihydro-3′-hydroxy-4′-oxo-spiro[cyclopentane-1,8′(4′H)-pyrrolo[1,2-α]pyrimidine]-2′-carboxamide], the IC50 was in the range of 1 to 10 nM.

As for `O=C(NCc1ccc(F)cc1)c1nc2n(c(=O)c1O)CCOC21CCNCC1` [Example 88, N-[(4-fluorophenyl)methyl]-6′,7′-dihydro-3′-hydroxy-4′-oxo-spiro[piperidine-4,9′(4′H)-pyrimido[2,1-c][1,4]oxazine]-2′-carboxamide], the half-inhibitory concentration (IC50) was 10 to 100 nM.

With `CS(=O)(=O)c1cc(F)ccc1CNC(=O)c1nc2n(c(=O)c1O)CCOC21CCCC1` [Example 89, N-[[4-fluoro-2-(methylsulfonyl)phenyl]methyl]-6′,7′-dihydro-3′-hydroxy-4′-oxo-spiro[cyclopentane-1,9′(4′H)-pyrimido[2,1-c][1,4]oxazine]-2′-carboxamide], the IC50 is 1 to 10 nM.

In the case of `CS(=O)(=O)c1cc(F)ccc1CNC(=O)c1nc2n(c(=O)c1O)CCOC21CCOC1` (stereo not shown) [Example 90, N-[[4-fluoro-2-(methylsulfonyl)phenyl]methyl]-4,5,6′,7′-tetrahydro-3′-hydroxy-4′-oxo-spiro[furan-3(2H),9′(4′H)-pyrimido[2,1-c][1,4]oxazine]-2′-carboxamide], the IC50 was in the range of 10 to 100 nM.

For `CNC(=O)c1cc(F)ccc1CNC(=O)c1nc2n(c(=O)c1O)CCOC21CCC1` [Example 91, N-[[4-fluoro-2-[(methylamino)carbonyl]phenyl]methyl]-6′,7′-dihydro-3′-hydroxy-4′-oxo-spiro[cyclobutane-1,9′(4′H)-pyrimido[2,1-c][1,4]oxazine]-2′-carboxamide], the IC50 was in the range of 1 to 10 nM.

Still in this test, the particulars now being: Table 1a; recombinant integrase, activity class.
On to `CN1CCn2c(nc(C(=O)NCc3ccc(F)cc3)c(O)c2=O)C12CCCC2` [Example 92, Spiro[cyclopentane-1,9′(6′H)-[4H]pyrazino[1,2-a]pyrimidine]-2′-carboxamide, N-[(4-fluorophenyl)methyl]-7′,8′-dihydro-3′-hydroxy-8′-methyl-4′-oxo-], for which the concentration for half-maximal inhibition (IC50) was 1 to 10 nM.

Turning to `CN1CCn2c(nc(C(=O)NCc3ccc(F)cc3-n3cncn3)c(O)c2=O)C12CCCC2` [Example 93, Spiro[cyclopentane-1,9′(6′H)-[4H]pyrazino[1,2-a]pyrimidine]-2′-carboxamide, N-[[4-fluoro-2-(1H-1,2,4-triazol-1-yl)phenyl]methyl]-7′,8′-dihydro-3′-hydroxy-8′-methyl-4′-oxo-], the IC50 is 1 to 10 nM.
